Experimental data as given in ChEMBL document CHEMBL1201862, “PubChem BioAssay data set” (2004).
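How tested: cells in 96-well plates exposed to compound for 48 hours at five concentrations. At the GI50, growth is halved.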 The source made the active and inactive calls. Rule as the data show it: active = GI50 up to about 1.1 µM and inactive = higher.

Legend:
Test in all cases: NCI tumour cell line growth inhibition, 48 h
COLO 205 = test system: COLO 205
HL-60 = test system: HL-60
HOP-62 = test system: HOP-62
HOP-92 = test system: HOP-92
K562 = test system: K562
KM12 = test system: KM12
M14 = test system: M14
MDA-MB-231 = test system: MDA-MB-231
MDA-N = test system: MDA-N
MOLT-4 = test system: MOLT-4
NCI-H226 = test system: NCI-H226
NCI-H460 = test system: NCI-H460
RPMI-8226 = test system: RPMI-8226
SF-268 = test system: SF-268
SK-MEL-5 = test system: SK-MEL-5
SK-OV-3 = test system: SK-OV-3
SNB-75 = test system: SNB-75
UACC-257 = test system: UACC-257
UACC-62 = test system: UACC-62
LOX IMVI = test system: LOX IMVI

Structure (SMILES)	GI50 (COLO 205)	GI50 (HL-60)	GI50 (HOP-62)	GI50 (HOP-92)	GI50 (K562)	GI50 (KM12)	GI50 (M14)	GI50 (MDA-MB-231)	GI50 (MDA-N)	GI50 (MOLT-4)	GI50 (NCI-H226)	GI50 (NCI-H460)	GI50 (RPMI-8226)	GI50 (SF-268)	GI50 (SK-MEL-5)	GI50 (SK-OV-3)	GI50 (SNB-75)	GI50 (UACC-257)	GI50 (UACC-62)	GI50 (LOX IMVI)
COc1ccc(C(=O)C#Cc2cn(C3CC(O)C(CO)O3)c(=O)[nH]c2=O)cc1 (stereo not given)	33.3 µM (inactive)	> 10 µM (inactive)	> 100 µM (inactive)	21.7 µM (inactive)	36.5 µM (inactive)	> 100 µM (inactive)	17.9 µM (inactive)	> 100 µM (inactive)	60.3 µM (inactive)	39.4 µM (inactive)	32 µM (inactive)	> 100 µM (inactive)	> 100 µM (inactive)	53 µM (inactive)	28.4 µM (inactive)	> 100 µM (inactive)	> 100 µM (inactive)	94.8 µM (inactive)	55.5 µM (inactive)	–
C(=C\c1ccccc1)/C=N/c1ccc2c(c1)Cc1ccccc1-2	–	–	> 100 µM (inactive)	> 100 µM (inactive)	34.2 µM (inactive)	> 100 µM (inactive)	62.2 µM (inactive)	65 µM (inactive)	44 µM (inactive)	31 µM (inactive)	> 100 µM (inactive)	58.1 µM (inactive)	–	38.9 µM (inactive)	98.9 µM (inactive)	–	38.6 µM (inactive)	–	> 100 µM (inactive)	23.9 µM (inactive)
S=c1[nH]c(=S)c2cc(Sc3ccc4[nH]c(=S)[nH]c(=S)c4c3)ccc2[nH]1	26.9 µM (inactive)	20.8 µM (inactive)	–	32.3 µM (inactive)	49.1 µM (inactive)	24 µM (inactive)	66.7 µM (inactive)	59.6 µM (inactive)	40.9 µM (inactive)	46.8 µM (inactive)	20.4 µM (inactive)	45.5 µM (inactive)	17.7 µM (inactive)	24.2 µM (inactive)	46.9 µM (inactive)	24.3 µM (inactive)	19.5 µM (inactive)	43.3 µM (inactive)	20 µM (inactive)	–
S=C1CC(c2ccccc2)Sc2ccccc2N1 (stereo not given)	> 100 µM (inactive)	> 100 µM (inactive)	22.8 µM (inactive)	–	> 100 µM (inactive)	95.3 µM (inactive)	45 µM (inactive)	45.2 µM (inactive)	54 µM (inactive)	5.22 µM (inactive)	> 100 µM (inactive)	63.1 µM (inactive)	> 100 µM (inactive)	38.8 µM (inactive)	66.8 µM (inactive)	41.6 µM (inactive)	20.9 µM (inactive)	> 100 µM (inactive)	51.1 µM (inactive)	> 100 µM (inactive)
O=C(CN1CCOCC1)Nc1ccc2c(c1)C1Oc3ccccc3CC1CO2 (stereo not given)	> 100 µM (inactive)	–	> 100 µM (inactive)	> 100 µM (inactive)	> 100 µM (inactive)	> 100 µM (inactive)	> 100 µM (inactive)	> 100 µM (inactive)	> 100 µM (inactive)	88.1 µM (inactive)	> 100 µM (inactive)	–	> 100 µM (inactive)	> 100 µM (inactive)	58.9 µM (inactive)	> 100 µM (inactive)	–	> 100 µM (inactive)	> 100 µM (inactive)	> 100 µM (inactive)
COC(=O)C1(Cc2ccc3c(c2)CCC3)Cc2ccccc2C1O (stereo not given)	17.3 µM (inactive)	37.5 µM (inactive)	22.9 µM (inactive)	–	12.2 µM (inactive)	22.6 µM (inactive)	19.6 µM (inactive)	21.3 µM (inactive)	3.36 µM (inactive)	8.22 µM (inactive)	17.3 µM (inactive)	18.6 µM (inactive)	24.5 µM (inactive)	19.4 µM (inactive)	16.3 µM (inactive)	19.7 µM (inactive)	> 10 µM (inactive)	15 µM (inactive)	14.5 µM (inactive)	15.1 µM (inactive)
O=C(O)C1=C/C(=C(/c2ccccc2)c2cc(C(=O)O)c(O)c3ccccc23)c2ccccc2C1=O	> 100 µM (inactive)	< 0.01 µM (active)	> 100 µM (inactive)	> 100 µM (inactive)	> 100 µM (inactive)	> 100 µM (inactive)	> 100 µM (inactive)	> 100 µM (inactive)	> 100 µM (inactive)	> 100 µM (inactive)	> 100 µM (inactive)	> 100 µM (inactive)	> 100 µM (inactive)	> 100 µM (inactive)	> 100 µM (inactive)	> 100 µM (inactive)	> 100 µM (inactive)	> 100 µM (inactive)	> 100 µM (inactive)	–
CN(C)CCOc1ccc2[nH]c(C(=O)N3CC(CCl)c4c3cc([N+](=O)[O-])c3ccccc43)cc2c1 (stereo not given)	3.25 µM (inactive)	3.2 µM (inactive)	1.88 µM (inactive)	–	1.79 µM (inactive)	1.71 µM (inactive)	2.07 µM (inactive)	3.23 µM (inactive)	3.68 µM (inactive)	1.29 µM (inactive)	54.1 µM (inactive)	1.77 µM (inactive)	2.67 µM (inactive)	1.71 µM (inactive)	1.7 µM (inactive)	27.3 µM (inactive)	1.85 µM (inactive)	2.01 µM (inactive)	2.21 µM (inactive)	2.58 µM (inactive)
